Values of other authors as cited in PMC3341490 (Nuclear Medicine and Biology, 2012).

Assays:
[1] = copper complex; ref [24]
[2] = test system: GRPR-expressing, PC-3 xenografted tumors in SCID mice

Compound	stability constant (log K) [1]	PC-3 tumor uptake ([2]; 1 hour, ref [18]-[19]) [% ID/g]	retention of radioactivity in the tumor, relative to 1 h ([2]; 24 h vs 1 h, ref [19]) [%]
O=C(O)CN1CCN(CC(=O)O)CCN(CC(=O)O)CCN(CC(=O)O)CC1 [DOTA, 1,4,7,10-tetraazacyclododecane-1,4,7,10-tetraacetic acid]	22.3	–	–
^64Cu-NO2A-Aoc-BN(7-14)	–	3.59	28
O=C(O)CN1CCN(CC(=O)O)CCN(CC(=O)O)CC1 [NOTA, 1,4,7-triazacyclononane-1,4,7-triacetic acid]	21.6	–	–
O=C(O)CN1CCCN(CC(=O)O)CCN(CC(=O)O)CCCN(CC(=O)O)CC1 [TETA]	21.7	–	–
